For the assay, the target named is T1, FtsY (FtsYNG) (Escherichia coli, UniProt P10121).
T1 construct: NG domain, 196–497 aa
Put plainly: SPR (positive control, […] MgCl2 in running buffer); […]-TROSY-HSQC titration. The format is binding.

Here are results for one compound from publication PMC6059433, “Discovery of fragments that target key interactions in the signal recognition particle (SRP) as potential leads for a new class of antibiotics” (PLoS ONE, 2018).

A word on the Kd: it is the free concentration of one partner at which half of the binding sites on the other are occupied at equilibrium, for simple one-to-one binding.

Structures are written as SMILES.

T1 sequence (P10121 196-497): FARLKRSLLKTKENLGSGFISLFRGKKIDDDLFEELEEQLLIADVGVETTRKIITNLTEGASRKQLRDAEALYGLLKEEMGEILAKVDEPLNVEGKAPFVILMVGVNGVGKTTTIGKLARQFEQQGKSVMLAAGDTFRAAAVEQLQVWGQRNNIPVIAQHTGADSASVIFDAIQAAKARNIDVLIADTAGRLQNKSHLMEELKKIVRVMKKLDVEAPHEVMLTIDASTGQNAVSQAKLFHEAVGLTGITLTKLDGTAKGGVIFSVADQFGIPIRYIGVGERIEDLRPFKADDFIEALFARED

`Nc1nc2c(ncn2[C@@H]2O[C@H](COP(=O)(O)OP(=O)(O)NP(=O)(O)O)[C@@H](O)[C@H]2O)c(=O)[nH]1` [GMPPNP] had a Kd of 280 ± 80 µM.
